Test results: patent EP0183129A1, “Quinolonecarboxylic acid derivatives” (KYORIN PHARMACEUTICAL CO., LTD., priority 1984, dated 1986)
In brackets after ≈: the same amount, converted by molar mass. Structures can show the parent of a compound that is named as a salt. Where two headings read alike, the source gives them in different places.

Assays:
S. pneumoniae 15 = assay: In vitro antibacterial activity, MIC (clinical isolates); format: cell-based; settings: Streptococcus pneumoniae; S. pneumoniae 15; 10^6 cells/ml; clinical isolate; read-out: MIC
S. faecalis 402 = assay: as above; format: cell-based; settings: Enterococcus faecalis; S. faecalis 402; 10^6 cells/ml; clinical isolate; read-out: MIC
S. agalactiae 4394 = assay: as above; format: cell-based; settings: Streptococcus agalactiae; S. agalactiae 4394; 10^6 cells/ml; clinical isolate; read-out: MIC
E. coli ATCC 10536 = assay: In vitro antibacterial activity, MIC (standard strain); format: cell-based; settings: Escherichia coli, ATCC10536; E. coli ATCC 10536; 10^6 cells/ml; standard strain; read-out: MIC
B. fragilis 25285 = assay: as above; format: cell-based, Bacteroides fragilis; settings: Bacteroides fragilis, 25285, B. fragilis 25285; 10^6 cells/ml; standard strain; read-out: MIC
[1] = system: Klebsiella pneumoniae KY(GN)6445; assay: as above; format: cell-based; settings: Klebsiella pneumoniae KY(GN)6445; 10^6 cells/ml; standard strain; read-out: MIC
S. agalactiae 4468 = assay: In vitro antibacterial activity, MIC (clinical isolates); format: cell-based; settings: Streptococcus agalactiae; S. agalactiae 4468; 10^6 cells/ml; clinical isolate; read-out: MIC
[2] = system: Fusobacterium varium KYA 8501; assay: In vitro antibacterial activity, MIC (standard strain); format: cell-based; settings: Fusobacterium varium, KYA8501, Fusobacterium varium KYA 8501; 10^6 cells/ml; standard strain; read-out: MIC
S. pyogenes 3102 = assay: In vitro antibacterial activity, MIC (clinical isolates); format: cell-based; settings: Streptococcus pyogenes
S. marcescens GN 7577 = assay: In vitro antibacterial activity, MIC (standard strain); format: cell-based; settings: Serratia marcescens, GN7577
S. agalactiae 4342 = assay: In vitro antibacterial activity, MIC (clinical isolates); format: cell-based; settings: Streptococcus agalactiae; S. agalactiae 4342; 10^6 cells/ml; clinical isolate; read-out: MIC
S. faecalis IID 682 = assay: In vitro antibacterial activity, MIC (standard strain); format: cell-based; settings: Enterococcus faecalis, IID682
[3] = system: Staphylococcus aureus 209 P; assay: as above; format: cell-based; settings: Staphylococcus aureus 209 P; 10^6 cells/ml; standard strain; read-out: MIC
[4] = system: Clostridium perfringens KYA 13123; assay: microbe, parasite or virus in culture; format: cell-based; settings: KYA13123
S. pyogenes 3130 = assay: In vitro antibacterial activity, MIC (clinical isolates); format: cell-based; settings: Streptococcus pyogenes
S. epidermidis IID 866 = assay: In vitro antibacterial activity, MIC (standard strain); format: cell-based; settings: Staphylococcus epidermidis, IID866, S. epidermidis IID 866; 10^6 cells/ml; standard strain; read-out: MIC
[5] = system: Enterobacter cloacae IID 977; assay: as above; format: cell-based; settings: Enterobacter cloacae, IID977, Enterobacter cloacae IID 977; 10^6 cells/ml; standard strain; read-out: MIC
[6] = system: Yersinia enterocolitica IID 981; assay: as above; format: cell-based; settings: IID981; Yersinia enterocolitica IID 981; 10^6 cells/ml; standard strain; read-out: MIC
P. aeruginosa IID 1210 = assay: as above; format: cell-based; settings: Pseudomonas aeruginosa, IID1210; P. aeruginosa IID 1210; 10^6 cells/ml; standard strain; read-out: MIC
[7] = system: Acinetobacter anitratus IID 876; assay: as above; format: cell-based; settings: Acinetobacter calcoaceticus, IID876, Acinetobacter anitratus IID 876; 10^6 cells/ml; standard strain; read-out: MIC
S. agalactiae 4470 = assay: In vitro antibacterial activity, MIC (clinical isolates); format: cell-based; settings: Streptococcus agalactiae; S. agalactiae 4470; 10^6 cells/ml; clinical isolate; read-out: MIC
K. pneumoniae 1-220S = assay: In vitro antibacterial activity, MIC (standard strain); format: cell-based; settings: Klebsiella pneumoniae, 1220S; K. pneumoniae 1-220S; 10^6 cells/ml; standard strain; read-out: MIC
E. coli ML 4707 = assay: as above; format: cell-based; settings: Escherichia coli, ML4707; E. coli ML 4707; 10^6 cells/ml; standard strain; read-out: MIC
S. pyogenes 4372 = assay: In vitro antibacterial activity, MIC (clinical isolates); format: cell-based; settings: Streptococcus pyogenes
S. aureus Smith = assay: In vitro antibacterial activity, MIC (standard strain); format: cell-based, Staphylococcus aureus
[8] = system: Salmonella entritidis IID 604; assay: as above; format: cell-based; settings: IID604; Salmonella entritidis IID 604; 10^6 cells/ml; standard strain; read-out: MIC
[9] = system: Bacillus subtilis PCI 219; assay: as above; format: cell-based; settings: PCI219; Bacillus subtilis PCI 219; 10^6 cells/ml; standard strain; read-out: MIC
S. pneumoniae IID 552 = assay: as above; format: cell-based; settings: Streptococcus pneumoniae, IID552; S. pneumoniae IID 552; 10^6 cells/ml; standard strain; read-out: MIC
S. pneumoniae 3227 = assay: In vitro antibacterial activity, MIC (clinical isolates); format: cell-based; settings: Streptococcus pneumoniae
S. faecalis 49 = assay: as above; format: cell-based; settings: Enterococcus faecalis; S. faecalis 49; 10^6 cells/ml; clinical isolate; read-out: MIC
[10] = system: Streptococcus pyogenes S-8; assay: In vitro antibacterial activity, MIC (standard strain); format: cell-based; settings: S8

Structure (SMILES) | MIC (S. pneumoniae 15) [µg/mL] | MIC (S. faecalis 402) [µg/mL] | MIC (S. agalactiae 4394) [µg/mL] | MIC (E. coli ATCC 10536) [µg/mL] | MIC (B. fragilis 25285) [µg/mL] | MIC [1] [µg/mL] | MIC (S. agalactiae 4468) [µg/mL] | MIC [2] [µg/mL] | MIC (S. agalactiae 4342) [µg/mL] | MIC [3] [µg/mL] | MIC [4] [µg/mL] | MIC (S. epidermidis IID 866) [µg/mL] | MIC [5] [µg/mL] | MIC [6] [µg/mL] | MIC (P. aeruginosa IID 1210) [µg/mL] | MIC [7] [µg/mL] | MIC (S. agalactiae 4470) [µg/mL] | MIC (K. pneumoniae 1-220S) [µg/mL] | MIC (E. coli ML 4707) [µg/mL] | MIC [8] [µg/mL] | further results
CCn1cc(C(=O)O)c(=O)c2cc(F)c(N3CCNCC3)cc21 [NFLX, Norfloxacin, reference compound] | 3.13 (≈ 9.8 µM) | 6.25 (≈ 19.6 µM) | 6.25 (≈ 19.6 µM) | 0.05 (≈ 0.157 µM) | 25 (≈ 78.3 µM) | 0.05 (≈ 0.157 µM) | 3.13 (≈ 9.8 µM) | 100 (≈ 313 µM) | 6.25 (≈ 19.6 µM) | 0.78 (≈ 2.44 µM) | 1.56 (≈ 4.89 µM) | 0.39 (≈ 1.22 µM) | 0.1 (≈ 0.313 µM) | 0.1 (≈ 0.313 µM) | 3.13 (≈ 9.8 µM) | 3.13 (≈ 9.8 µM) | 6.25 (≈ 19.6 µM) | 0.2 (≈ 0.626 µM) | 0.05 (≈ 0.157 µM) | 0.1 (≈ 0.313 µM) | MIC (S. pyogenes 3102; 3102): 1.56 µg/mL (≈ 4.89 µM); MIC (S. marcescens GN 7577): 1.56 µg/mL (≈ 4.89 µM); MIC (S. faecalis IID 682): 1.56 µg/mL (≈ 4.89 µM); MIC (S. pyogenes 3130): 1.56 µg/mL (≈ 4.89 µM); MIC (S. pyogenes 4372; 4372): 1.56 µg/mL (≈ 4.89 µM); MIC (S. aureus Smith; Staphylococcus aureus, S. aureus Smith, 10^6 cells/ml, standard strain): 1.56 µg/mL (≈ 4.89 µM); MIC [9]: 0.1 µg/mL (≈ 0.313 µM); MIC (S. pneumoniae IID 552): 3.13 µg/mL (≈ 9.8 µM); MIC (S. pneumoniae 3227; 3227): 12.5 µg/mL (≈ 39.1 µM); MIC (S. faecalis 49): 3.13 µg/mL (≈ 9.8 µM); MIC ([10]; Streptococcus pyogenes): 1.56 µg/mL (≈ 4.89 µM)
NCC1CCN(c2c(F)cc3c(=O)c(C(=O)O)cn(C4CC4)c3c2F)C1 (stereo not drawn) [Example 1, 7-(3-Aminomethyl-l-pyrrolidinyl)-l-cyclopropyl-6,8-difluoro-1,4-dihydro-4-oxo-3-quinolinecarboxylic acid hydrochloride] | 0.05 | 0.1 | 0.1 | 0.025 | 0.39 | 0.05 | 0.05 | 0.78 | 0.05 | 0.05 | 0.39 | 0.05 | 0.1 | 0.05 | 0.78 | 0.1 | 0.05 | 0.05 | 0.025 | 0.05 | MIC (S. pyogenes 3102; S. pyogenes 3102, 10^6 cells/ml, clinical isolate, read-out: MIC): 0.05 µg/mL; MIC (S. marcescens GN 7577; S. marcescens GN 7577, 10^6 cells/ml, standard strain, read-out: MIC): 0.78 µg/mL; MIC (S. faecalis IID 682; S. faecalis IID 682, 10^6 cells/ml, standard strain, read-out: MIC): 0.05 µg/mL; MIC (S. pyogenes 3130; read-out: MIC): 0.05 µg/mL; MIC (S. pyogenes 4372; S. pyogenes 4372, 10^6 cells/ml, clinical isolate, read-out: MIC): 0.05 µg/mL; MIC (S. aureus Smith; MIC column of Table 3-1, beside ED50 against S. aureus Smith): 0.05 µg/mL; MIC (S. aureus Smith; Staphylococcus aureus, S. aureus Smith, 10^6 cells/ml, standard strain, read-out: MIC): 0.05 µg/mL; MIC [9]: 0.025 µg/mL; MIC (S. pneumoniae IID 552): 0.05 µg/mL; MIC (S. pneumoniae 3227; S. pneumoniae 3227, 10^6 cells/ml, clinical isolate, read-out: MIC): 0.05 µg/mL; MIC (S. faecalis 49): 0.1 µg/mL; MIC ([10]; Streptococcus pyogenes S-8, 10^6 cells/ml, standard strain, read-out: MIC): 0.05 µg/mL
